Measurements published in PubChem BioAssay (NCI).
Where “and” joins values, the source holds several entries; their conditions need not be identical. Equal values may be shown once.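 How tested: cells in 96-well plates exposed to compound for 48 hours at five concentrations. GI50: concentration for 50% inhibition of growth. TGI: concentration producing complete growth inhibition.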

Experiments:
Experiment in all cases: DTP human tumour cell line panel, 48 h
[1] = test system: SK-MEL-2 melanoma
[2] = test system: HCT-15 colon
[3] = test system: BT-549 breast
[4] = test system: SK-OV-3 ovarian
[5] = test system: IGROV1 ovarian
[6] = test system: SW-620 colon
[7] = test system: A498 renal
[8] = test system: HOP-62 NSCLC
[9] = test system: U251 CNS
[10] = test system: COLO 205 colon

SMILES	TGI [1]	GI50 [2]	TGI [2]	GI50 [3]	TGI [3]	GI50 [4]	TGI [4]	GI50 [5]	TGI [5]	TGI [6]	GI50 [7]	TGI [7]	GI50 [8] [µM]	TGI [8]	GI50 [9]	TGI [9]	GI50 [10]	TGI [10]	GI50 [1]	GI50 [6]
COc1ccc(C(=O)/C=C/c2ccc(O)c(O)c2F)c(OC)c1	13.4 µM and 13.6 µM	0.444 µM	13.8 µM and 29.3 µM	6.24 µM	18 µM and 26.2 µM	17.6 µM	47 µM and 90.3 µM	12.8 µM	75 µM and > 100 µM	75 µM and 25.5 µM	10.5 µM	21.3 µM and 30.6 µM	19.8	37.1 µM and > 100 µM	4.12 µM	23.1 µM and 17.9 µM	12.9 µM	22.1 µM and 27.2 µM	–	–
COc1cccc(-c2nn(-c3ccccc3)cc2-c2ccnc(NCCNS(=O)(=O)c3ccc(Cl)cc3)c2)c1	26.9 µM	3.86 µM	> 100 µM	4.07 µM	> 100 µM	4.43 µM	> 100 µM	6.63 µM	> 100 µM	> 100 µM	3.4 µM	> 100 µM	13.5	> 100 µM	5.89 µM	> 100 µM	3.33 µM	14.7 µM	3.84 µM	5.44 µM
O=C1/C(=C/c2cccc([N+](=O)[O-])c2)COc2ccc(O)c(O)c21	4.35 µM	0.569 µM	2.76 µM	2.42 µM	4.84 µM	3.41 µM	12.6 µM	1.02 µM	2.97 µM	3.08 µM	1.42 µM	3.26 µM	1.93	4.62 µM	1.17 µM	2.64 µM	1.79 µM	3.74 µM	2 µM	1.14 µM
COc1cc(/C=C(/C)[N+](=O)[O-])ccc1O	4.3 µM and 3.49 µM	2.34 µM and 2 µM	7.4 µM and 6.21 µM	2.34 µM and 3.08 µM	4.67 µM and 8.82 µM	8.15 µM and 4.78 µM	20.4 µM and 16.9 µM	2.89 µM and 1.57 µM	8.54 µM and 5.14 µM	3.67 µM and 3.11 µM	5.89 µM and 11.6 µM	13.7 µM and 23.8 µM	2.46	6.01 µM	1.77 µM and 1.87 µM	3.79 µM and 3.7 µM	1.99 µM and 1.45 µM	3.99 µM and 2.85 µM	2.15 µM and 1.7 µM	1.69 µM and 1.57 µM
Cc1cc2c(c3c1c1ccccc1n3C)C(=O)C=CC2=O	51.9 µM	–	36.5 µM	–	31.4 µM	–	> 100 µM	–	> 78.2 µM	28.7 µM	–	> 100 µM	–	> 100 µM	–	45.1 µM	–	> 100 µM	–	–
Oc1ccc(C(c2ccccc2)(c2ccccc2)c2ccccc2)cc1	27 µM	27.5 µM	> 100 µM	17.1 µM	31.3 µM	16.3 µM	30 µM	14.3 µM	27.6 µM	66.1 µM	20.5 µM	35.1 µM	17.6	31.5 µM	28.9 µM	> 100 µM	15.5 µM	29.8 µM	13.6 µM	22.4 µM
O=C(/C=C/c1ccco1)c1ccc(Nc2nc(Nc3ccc(F)cc3)nc(Nc3ccc(Cl)cc3)n2)cc1	> 100 µM	9.47 µM	> 100 µM	2.23 µM	> 29.6 µM	26.6 µM	> 56.2 µM	25.8 µM	> 81 µM	> 63.3 µM	2.39 µM	> 65.1 µM	> 50	> 87.1 µM	19.5 µM	53.8 µM	12.1 µM	> 100 µM	> 49.8 µM	24.5 µM
COc1ccc(C(=O)Cn2c(C(=O)c3ccc(Cl)cc3)nc3ccccc32)cc1	> 100 µM	3.88 µM	> 100 µM	> 38.7 µM	> 100 µM	23.6 µM	> 100 µM	25.7 µM	> 100 µM	> 100 µM	14.3 µM	> 100 µM	–	> 34.6 µM	19.4 µM	> 100 µM	37.5 µM	> 100 µM	> 32.7 µM	4.4 µM
O=C1c2ccccc2-c2c1c1ccccc1c(=O)n2CCCNCCCn1c2c(c3ccccc3c1=O)C(=O)c1ccccc1-2	> 50 µM	1.03 µM	3.81 µM	8.42 µM	19.7 µM	11.7 µM	40.5 µM	1.63 µM	> 50 µM	> 12.5 µM	8.97 µM	17.4 µM	2.68	9.19 µM	1.12 µM	2.67 µM	10.6 µM	> 31.1 µM	22.7 µM	0.852 µM
Cn1ccnc1C(=O)/C=C/c1ccc(CC(=O)Nc2ccc(Cl)cc2)cc1	> 25 µM	0.999 µM	> 25 µM	3.53 µM	> 25 µM	8.79 µM	> 25 µM	5.27 µM	> 25 µM	> 25 µM	> 25 µM	> 25 µM	2.16	> 25 µM	1.1 µM	> 25 µM	9.44 µM	> 25 µM	> 25 µM	1.25 µM
O=C(Nc1ccc(Cl)c([N+](=O)[O-])c1)Nc1nc2ccccc2s1	5.32 µM	3.32 µM	15.5 µM	16.4 µM	44.7 µM	2.6 µM	8.46 µM	3.62 µM	17.4 µM	14.5 µM	2.14 µM	8.01 µM	3.21	12 µM	3.36 µM	13.4 µM	1.78 µM	3.39 µM	2.37 µM	3.38 µM
Cc1ccc(NC(c2ccccc2)c2ccc3cccnc3c2O)cc1 (configuration not stated)	21 µM	–	14.4 µM	–	15.3 µM	–	23.8 µM	–	14 µM	> 52.2 µM	–	54.8 µM	–	19.9 µM	–	10.9 µM	–	16.5 µM	–	–
CCNC(=O)C[C@@H]1N=C(c2ccc(Cl)cc2)c2cc(OC)ccc2-n2c(C)nnc21	> 100 µM	3.77 µM	> 100 µM	> 28.1 µM	> 100 µM	2.37 µM	> 100 µM	12.2 µM	> 100 µM	> 100 µM	1.73 µM	> 69.3 µM	2.1	> 100 µM	> 67.8 µM	> 100 µM	0.994 µM	> 100 µM	3.28 µM	> 31 µM
COc1ccc(CN2C(=O)/C(=C\c3cc(OC)c(OC)c(OC)c3)c3cc(OC)ccc32)cc1	4.01 µM	1.66 µM	3.42 µM	3.34 µM	20.4 µM	3.12 µM	13.1 µM	1.8 µM	4.06 µM	3.41 µM	1.5 µM	4.39 µM	2.37	4.89 µM	1.38 µM	2.67 µM	2.59 µM	6.51 µM	1.92 µM	1.82 µM
